From publication PMC6310865 (Proceedings of the National Academy of Sciences of the …, 2018)
Read-outs that look alike come from different tables or passages of the source. Ends that are not written are not given here.

Experiments:
CD4+ T cells = type: cell-based, human
[1] = target: DQ0602 (HLA DQB1*06:02/DQA1*01:02 heterodimer) (Homo sapiens, UniProt P01909+P01920, A157G/A45G/C70R/E118A/E183D/E77G/F83G/G63E/H151Q/H199R/H252R/H253Q/I129T/I235V/I88M/INS77G/K197Q/L117V/L119F/L178F/L71W/L74F/L85Q/L91A/L98M/N214S/P87R/Q116E/Q76K/R102G/R240Q/R75S/R78G/S102Y/S185I/S41F/S97I/T121G/T122I/T172A/T86R/V229M/V68A/V73E/Y34C/Y41F/Y58L); type: binding; settings: in words; Dataset S1
[2] = 13 post-Pandemrix cases versus 10 post-Pandemrix controls

NP261–275: nucleoprotein epitope shared between A/California/07/2009 and PR8 (RSALILRGSVAHKSC; UniProt P03466 261-275, looked up, fragment)
Tetramer reactivity (frequency of specific CD4+ T cells) in primary screening (CD4+ T cells): highest frequencies

HCRT54–66-NH2: C-terminal amidated HCRT54–66, as in secreted, mature hypocretin-1 (HGAGNHAAGILTL-NH2)
DQ0602 binding affinity of amidated versus nonamidated HCRT peptide [1]: higher affinity | Tetramer-positive CD4+ T cells in T1N cases versus DQ0602 controls (CD4+ T cells; 7 recent onset cases versus 21 controls): higher reactivity | Tetramer-positive CD4+ T cells in T1N cases versus DQ0602 controls (CD4+ T cells; [2]): marginally higher values | Tetramer-positive CD4+ T cells in T1N cases versus DQ0602 controls (CD4+ T cells; all cases versus controls, […]): significantly higher percentage

HCRT86–97-NH2: C-terminal amidated HCRT86–97, as in secreted, mature hypocretin-2 (ASGNHAAGILTM-NH2; UniProt O43612 86-97, looked up, fragment)
DQ0602 binding affinity of amidated versus nonamidated HCRT peptide [1]: higher affinity | Tetramer-positive CD4+ T cells in T1N cases versus DQ0602 controls (CD4+ T cells; [2]): significantly higher reactivity | Tetramer-positive CD4+ T cells in T1N cases versus DQ0602 controls (CD4+ T cells; all cases versus controls, […]): marginally higher values

NP17–31: nucleoprotein epitope, PR8 specific (GERQNATEIRASVGK)
Tetramer reactivity (frequency of specific CD4+ T cells) in primary screening (CD4+ T cells): highest frequencies
